These results are taken from patent US20240058318A1, “DEGRADING PKCB1 TO TREAT CANCER” (Mayo Foundation for Medical Education and Research, priority 2020, published 2024).

Data set [1] is described as follows: Pharmacokinetics in mice, plasma by UPLC-MS/MS. In kind it is in vivo, female CD1 mice. The following applies: for Concentration ENDX PROTAC 7: mouse plasma. As for the experimental part: ENDX PROTAC 7 and PROTAC 9 pharmacokinetics were characterized in female CD1 mice. Blood samples were collected from mice anesthetized under isoflurane via retro-orbital eye bleed into tubes containing EDTA and immediately chilled on ice. NaF was added to the EDTA collection tubes to help stabilize the drug in whole blood for the second IV and IP studies with ENDX PROTAC 9, and for the IV and oral studies with PROTAC 7. Plasma and red blood cells were separated immediately by centrifugation in a refrigerated centrifuge at 4° C. The plasma was transferred to a separate tube and immediately frozen at −20° C.
For IV dosing, ENDX PROTAC 9 was dissolved in 10% DMSO, 10% PEG 400, and 80% normal saline for a final concentration of 0.2 mg/mL ENDX PROTAC 9 for the 1 mg/kg IV doses. ENDX PROAC 7 was dissolved in 15% DMSO, 9.44% PEG400, and […] normal saline for a final concentration of 0.19 mg/mL for the 1 mg/kg IV doses. Blood samples (3 mice per time-point) were collected 5 minutes, 15 minutes, 0.5 hour, 1 hour, 2 hours, 4 hours, 8 hours, and 24 hours after administration of the ENDX PROTAC. A second IV study was performed for ENDX PROTAC 9 in which blood samples (3 mice per time-point) were collected 5 minutes, 15 minutes, 1 hour, and 2 hours after administration of ENDX PROTAC 9. For oral dosing, ENDX PROTAC 9 (10 mg/kg) and ENDX PROTAC 7 (10 mg/kg) were suspended in 1 mM ascorbic acid:PEG400, 1:1 v/v for a final concentration of 1.0 mg/mL ENDX PROTAC. Blood samples (three mice per time-point) were collected 15 minutes, 0.5 hour, 1 hour, 2 hours, 4 hours, 6 hours, 8 hours, and 24 hours after administering the ENDX PROTAC. For LP. dosing, ENDX PROTAC 9 (4 mg/kg) was prepared in 1 mM ascorbic acid:PEG400, 1:1 v/v for a final concentration of 0.4 mg/mL ENDX PROTAC 9. Blood samples (three mice per time-point) were collected 15 minutes, 0.5 hour, 1 hour, 2 hours, 4 hours, 6 hours, 8 hours, and 24 hours after administration. Plasma concentrations of ENDX PROTAC 7 and 9 were measured using UPLC-MS/MS.

Another data set relates to MDAMB231 cells. The experiment in a line: Crystal violet (CV) proliferation assay, MDAMB231. Particulars: MDAMB231 (PKCß1 high, Rb positive), 2000 cells. It is filed as cell-based. As for the experimental part: (§1) Cell proliferation rates were determined using crystal violet assays. […] Cells were fixed with 25% glutaraldehyde for 10 minutes with shaking, washed 5 times with distilled water, stained with a 1% crystal violet solution (solubilized in 25% methanol) for 10 minutes, washed again 5 times and allowed to dry. De-staining was performed using […] sodium citrate in 50% ethanol followed by quantification using a 96 well spectrophotometer set at an absorbance of 550 nm.

For the next data set, the system named is BT549 cells. The experiment in a line: Crystal violet (CV) proliferation assay, BT549. It is filed as cell-based. Particulars: BT549 (PKCß1 high, Rb negative), 2000 cells. As for the experimental part: as §1
Data set [2] has as its system Rb-proficient (MDAMB231) and Rb-deficient (BT549 and MDAMB436) TNBC cells. In words: CV proliferation assay, TNBC cells (statements across lines). In kind it is cell-based. The following applies: MDAMB231 and BT549 cells (FIG. 4A and TABLE 1). As for the experimental part:
(§2) Cell proliferation rates were determined using crystal violet assays. One thousand cells per well were plated in 96 well tissue culture plates and treated the following day with a bifunctional compound or control for 7 days in replicates of 8. Cells were fixed with 25% glutaraldehyde for 10 minutes with shaking, washed 5 times with distilled water, stained with a 1% crystal violet solution (solubilized in 25% methanol) for 10 minutes, washed again 5 times and allowed to dry. De-staining was performed using […] sodium citrate in 50% ethanol followed by quantification using a 96 well spectrophotometer set at an absorbance of 550 nm.
as §2, with “using CV” for “using crystal violet”, “assays. Two” for “assays. One”, “thousand (2000) or 4000” for “thousand”, “for 6” for “for 7”, “of 6.” for “of 8.”

The subject of data set [3] is ER-stress induced UPR pathway. In words: Western blot of UPR pathway proteins in MDA-MB-231 cells. In kind it is cell-based. The following applies: 1 μM. As for the experimental part:
Triple negative breast cancer MDA-MB-231 cells were cultured in phenol-red free DMEM/F12 medium supplemented with 10% FBS and 1% AA. Cells were plated at 1×10^6 cells per 10 cm dish. The next day, the cells were treated with DMSO, 1 μM Pr-7 or 1 μM ENDX for 1, 8, 24, and 48 hours, and were then processed for RNA and RIPA protein analysis.
For western blotting, 30 μg of protein lysates were run on Criterion precast 10% Bis-Tris gel, transferred to PVDF membrane, incubated in TBST-5% milk for one hour followed by overnight incubation with phospho-IRE1α (Sigma SAB5700519, rabbit, 1:1000), IRE1α (CS3294, rabbit, 1:1000), phospho-eIF2α (CS3398, rabbit, 1:1000), eIF2α (CS5324, rabbit, 1:1000), CHOP (CS2895, mouse, 1:1000), PUMA (SC374223, mouse, 1:200), NOXA (CS14766, rabbit, 1:1000), E2F1 (SC251, mouse, 1:250), BCL2 (SC7382, 1:200), cleaved PARP (CS5625, rabbit, 1:1000), PARP (CS9542, rabbit, 1:1000), PKCβ1 (SC8049, mouse, 1:200), PKCδ (CS2058, rabbit, 1:1000) and Actin (Sigma A2228, mouse, 1:10,000) primary antibodies in TBST-5% BSA solution. Membranes were washed in TBS-T, incubated for one-hour in HRP-linked anti-rabbit or anti-mouse secondary antibodies in TBST-5% milk, and washed with TBS-T. Bands were developed using west-pico or west-femto chemiluminescent substrate reagents.

The mark [4] stands for this setting: mice, oral 10 mg/kg, NaF in tubes.

Structures are written as SMILES. Values joined by “and” are separate entries in the source; they are usually repeats but may differ in a detail not shown here. Identical values can stand only once. Some results are limits rather than exact numbers.

`CC/C(=C(\c1ccc(O)cc1)c1ccc(OCCN(C)C(=O)COCCNC(=O)Cc2ccc3c(c2)CN(C2CCC(=O)NC2=O)C3=O)cc1)c1ccccc1` (stereo not drawn) [TC-Pr-007]: the “Concentration ENDX PROTAC 7” value was 37.27 ng/mL and 57.95 ng/mL and 30.96 ng/mL in data set [1] (IV (1 mg/kg), 15 minutes, listed as ENDX PROTAC 7, 1 mg/kg); 10.89 ng/mL and 19.85 ng/mL and 16.62 ng/mL in data set [1] (IV (1 mg/kg), 30 minutes, listed as ENDX PROTAC 7, 1 mg/kg); 8.35 ng/mL and 9.53 ng/mL and 8.69 ng/mL in data set [1] (IV (1 mg/kg), 120 minutes, listed as ENDX PROTAC 7, 1 mg/kg); 0.75 ng/mL and 0.7 ng/mL and 0.93 ng/mL in data set [1] (PO (10 mg/kg), 15 minutes, listed as ENDX PROTAC 7, 10 mg/kg); 0.64 ng/mL and 0.81 ng/mL and 0.83 ng/mL in data set [1] (PO (10 mg/kg), 30 minutes, listed as ENDX PROTAC 7, 10 mg/kg); 0.53 ng/mL and 0.4 ng/mL and 0.44 ng/mL in data set [1] (PO (10 mg/kg), 360 minutes, listed as ENDX PROTAC 7, 10 mg/kg). Further, the “Concentration ENDX PROTAC 7” value in data set [1] (PO (10 mg/kg), 480 minutes, listed as ENDX PROTAC 7, 10 mg/kg) was 0.69 ng/mL and 0.37 ng/mL and 0.4 ng/mL. Also, in data set [1] (mice, I.V. 1 mg/kg, NaF in tubes), the elimination half-life was 5 h. For the same compound, the peak plasma concentration came out at 129.7 ng/mL in data set [1] (mice, IV 1 mg/kg, NaF in tubes) and 1.24 ng/mL in data set [1] (setting [4]). In addition, the “time of peak plasma concentration” value in data set [1] (mice, IV 1 mg/kg, NaF in tubes) is no more than 5 min; in data set [1] (setting [4]) it was no more than 60 min. This compound had an Oral bioavailability in data set [1] (mice, oral 10 mg/kg vs IV 1 mg/kg, NaF in tubes) of 0.85%. Moreover, the half-maximal inhibitory concentration (IC50) (in general, the concentration needed to halve the response being measured) with MDAMB231 cells amounted to 0.087 µM; with BT549 cells it was 0.043 µM. Besides, the induction of apoptosis result in data set [2] was “induced apoptosis”. For the same compound, the E2F1 expression result in data set [3] is “downregulation”. The E2F7 activation result in data set [3] is “activated E2F7”. Moreover, in data set [3], the PARP cleavage result is given as “increased PARP cleavage”. The “expression of anti-apoptotic protein BCL2” value in data set [3] is listed as “downregulated”. In data set [3] (1-48 hours), the “activation of ER-stress induced UPR pathway” value was “robustly activated multiple components”.
